From US11339122B2, “hTRPV1 chemical agents” (UNIVERSITY OF PITTSBURGH—OF THE COMMONWEALTH SYSTEM OF …, priority 2015, dated 2022) come the findings set out here.

Values joined by “and” are separate entries in the source; they are usually repeats but may differ in a detail not shown here. Identical values can stand only once.

For assay [1], the target named is T1, hTRPV1 (Homo sapiens (Human), UniProt Q8NER1). The assay is described as follows: Ca2+ uptake assay, capsaicin antagonism (CHO-hTRPV1 cells). The assay is classed as cell-based. The conditions noted are these: for Ki: capsaicin (30 nM) stimulated Ca2+ uptake; for inhibition at 30 µM / % inhibition at 30 μM (capsaicin antagonism): compound at 30 μM, capsaicin 30 nM. How it is done: (§1) Tet-On induced CHO-hTRPV1 cells were cultured in maintaining medium (F12 supplemented with 10% TET-free FBS [Atlanta Biologicals, GA], 25 mM HEPES, 10 μg/ml blasticidin and 250 μg/ml geneticin (all from Invitrogen Life Sciences; Grand Island, N.Y.). TRPV1 protein was induced with induction medium (F12 supplemented with 10% FBS, 25 mM HEPES, and 1 μg/ml tetracycline) as described below for ligand binding and Ca uptake measurements.
(§2) CHO-hTRPV1 cells were plated in 24-well plates, reaching 40 to 60% confluence in maintaining medium after 24 hours. The cells were washed once with Dulbecco's phosphate buffered saline (DPBS; Invitrogen, Grand Island, N.Y.) to remove antibiotics, and fresh medium with tetracycline (inducing medium) was added to induce TRPV1 expression. Experiments were done approximately 24 hours after induction. The cells were at least 90% confluent at the time of the assays.
(§3) For agonist Ca^2+ uptake assays, the inducing medium was aspirated and replaced by DMEM (supplemented with bovine serum albumin (0.25 mg/mL), […], and 100 μl of increasing concentrations of the non-radioactive ligand for a total volume of 400 μl/well. The cells were incubated for 5 min in a water bath at 37° C. For uptake measurements by a full agonist, a saturating concentration of capsaicin (3000 nM) was used as a positive control. Immediately after incubation, the assay medium was aspirated and the cells were washed twice with ice cold DPBS (no Ca^2+ & Mg^2+).The cells were then lysed in radioimmunoprecipitation assay buffer (50 mM Tris-Cl pH 7.5, 150 mM NaCl, 1% Triton X-100, 1% SDS, and 1% sodium deoxycholate; 400 μL/well) for at least 40 min on a shaker. Aliquots (300 μL) of the cell lysates were counted in a liquid scintillation counter. Background uptake was determined in the absence of either compound or capsaicin. For the antagonism assays, capsaicin (30 nM) was included along with increasing concentrations of the ligand being evaluated. The cells were incubated for 5 min in a water bath at 37° C. Immediately after incubation, the assay medium was aspirated and the cells were washed twice with ice-cold DPBS (no Ca^2+ & Mg^2+). The cells were then lysed in radioimmunoprecipitation assay buffer for at least 40 min on a shaker. Aliquots of the cell lysate were counted in a liquid scintillation counter. Triplicate points at each concentration of ligand were determined in each experiment. Compounds were initially screened at a concentration of 30 µM. Compounds showing greater than 10% agonism/antagonism were evaluated in triplicate experiments. As indicated, full dose response curves for compounds showing activity were performed at least three times. Data was analyzed using GraphPad Prism.

In assay [2] the target is cannabinoid receptor 2 (CB2) (Homo sapiens (Human), UniProt P34972). The assay is described as follows: Binding at the cannabinoid receptor 2 (CB2).
For assay [3], the target named is T1, hTRPV1. The assay is described as follows: Agonist Ca2+ uptake assay (CHO-hTRPV1 cells). The class given is cell-based. How it is done: as §1, §2
as §3, with “The cells were incubated for 5 min in a water bath at 37° C. Immediately after incubation, the assay medium was aspirated and the cells were washed twice with ice-cold DPBS (no Ca^2+ & Mg^2+). The cells were then lysed in radioimmunoprecipitation assay buffer for at least 40 min on a shaker.” left out, “Triplicate points at each concentration of ligand were determined in each experiment. Compounds were initially screened at a concentration of 30 µM. Compounds showing greater than 10% agonism/antagonism were evaluated in triplicate experiments. As indicated, full dose response curves for compounds showing activity were performed at least three times.” left out

The target in assay [4] is T1, hTRPV1. The assay is described as follows: [3H]RTX competition binding assay (membranes of induced CHO-hTRPV1 cells). The conditions noted are these: approximately 2 nM [3H]RTX, 37° C., 60 minutes; read-out: Ki for inhibition of [3H]RTX binding to hTRPV1. How it is done:
as §1
Binding studies with [^3H]RTX were carried out as follows. The binding assay mixtures were prepared in 1.5 ml centrifuge tubes and consisted of a fixed concentration (approximately 2 nM) of [^3H]RTX (37 Ci/mmol specific activity, PerkinElmer Life Sciences), various concentrations of competing ligands, and […] of membranes from induced CHO-hTRPV1 expressing cells (approximately 1-3×10^6 cells) in Dulbecco's phosphate buffered saline (DPBS, with Ca^2+ & Mg^2+) for a total volume of 350 μl. The assay mix contained bovine serum albumin at a final concentration of 0.25 mg/ml (Cohn fraction V; Sigma-Aldrich, St. Louis, Mo.). In each set of experiments, nonspecific binding were determined in the presence of 200 nM non-radioactive RTX. The binding reaction was initiated by placing the assay mixture in a 37° C. shaking water bath for 60 minutes ([…]). The assay mixture was then chilled on ice for 2-3 min before adding 100 μl of α1-acid glycoprotein (2 mg/ml; Sigma-Aldrich) and mixed thoroughly. The tubes were kept on ice for an additional 10 min. The bound and free ligands were then separated by centrifugation (12,200 rpm for 15 minutes) in a Beckman Coulter centrifuge Allegra 21R. 200 μl of supernatant was collected for determination of free ligand. The remainder was removed by aspiration. The bottom portion of the tubes containing the membranes was cut off and bound radioactivity determined. Radioactivity was measured by scintillation counting. Data were analyzed using GraphPad Prism. Ki values for compounds were determined by competition for binding of [^3H]RTX to the hTRPV1 and represent the mean SEM of triplicate binding curves. […]

T1 sequence (Q8NER1 whole entry): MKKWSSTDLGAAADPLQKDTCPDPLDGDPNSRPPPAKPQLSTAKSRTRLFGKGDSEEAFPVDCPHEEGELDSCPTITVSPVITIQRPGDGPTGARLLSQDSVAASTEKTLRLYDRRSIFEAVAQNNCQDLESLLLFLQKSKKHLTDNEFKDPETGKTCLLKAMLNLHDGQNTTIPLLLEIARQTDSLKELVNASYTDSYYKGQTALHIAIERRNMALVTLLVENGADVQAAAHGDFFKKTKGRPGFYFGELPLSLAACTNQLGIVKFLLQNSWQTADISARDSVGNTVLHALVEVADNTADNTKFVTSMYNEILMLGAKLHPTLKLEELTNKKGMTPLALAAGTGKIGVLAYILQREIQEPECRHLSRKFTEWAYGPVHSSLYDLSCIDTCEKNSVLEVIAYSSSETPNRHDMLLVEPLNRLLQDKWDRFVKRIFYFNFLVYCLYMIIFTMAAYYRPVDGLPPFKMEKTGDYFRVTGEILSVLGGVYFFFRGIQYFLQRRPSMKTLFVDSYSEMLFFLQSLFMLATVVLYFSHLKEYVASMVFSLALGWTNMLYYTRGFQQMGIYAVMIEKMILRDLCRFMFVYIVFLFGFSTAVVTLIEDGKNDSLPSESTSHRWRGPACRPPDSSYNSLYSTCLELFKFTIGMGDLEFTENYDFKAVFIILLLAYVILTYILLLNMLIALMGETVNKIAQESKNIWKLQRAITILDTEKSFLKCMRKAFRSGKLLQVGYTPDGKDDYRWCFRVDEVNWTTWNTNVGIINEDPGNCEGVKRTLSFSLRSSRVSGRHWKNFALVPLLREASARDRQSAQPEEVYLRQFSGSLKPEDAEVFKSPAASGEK
Chain of cannabinoid receptor 2 (CB2) (P34972 whole entry, species assumed): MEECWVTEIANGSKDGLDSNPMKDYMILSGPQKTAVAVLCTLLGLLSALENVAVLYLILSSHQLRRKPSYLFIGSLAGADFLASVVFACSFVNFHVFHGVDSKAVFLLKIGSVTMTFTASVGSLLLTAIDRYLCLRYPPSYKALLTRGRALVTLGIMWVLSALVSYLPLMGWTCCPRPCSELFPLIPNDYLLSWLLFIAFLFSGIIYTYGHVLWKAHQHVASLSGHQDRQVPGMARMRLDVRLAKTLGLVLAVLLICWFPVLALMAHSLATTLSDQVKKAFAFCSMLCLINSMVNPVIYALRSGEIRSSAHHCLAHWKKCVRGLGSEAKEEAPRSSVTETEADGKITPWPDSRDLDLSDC

One may read the Ki as a measure of affinity in units of concentration, obtained from inhibition or displacement. What is called inhibition is how much of the control response was suppressed. Lower therefore signals a weak effect. With `Cc1c(Cl)cccc1NC(=O)Nc1cccc2c(O)cccc12` [Compound 15], on hTRPV1 [1], the inhibition constant Ki amounted to 0.49 ± 0.14 µM and the inhibition at 30 µM is 99.6%. In assay [2], the inhibitory constant (Ki) was 1.39 µM.
In turn, `COc1ccc(C)cc1NC(=O)Nc1ccccc1F` [Compound 8] returned an inhibition at 30 µM on hTRPV1 [1] of 28 ± 6%.
One may read the EC50 as the concentration that produces a half-maximal response. Turning to `CCOC(=O)c1ccc(NC(=O)Nc2ccc(F)cc2)cc1` [Compound 5], the “functional character at hTRPV1” value on hTRPV1 [3] is “partial agonist”. For the same compound, the EC50 at hTRPV1 [3] (Ca2+ uptake, CHO-hTRPV1 cells, read-out: EC50 for capsaicin agonism) was 2.84 ± 0.21 µM. Also, at hTRPV1 [3] (relative to 3000 nM capsaicin, read-out: maximal stimulation, % of that by 3000 nM capsaicin (% agonism)), the Emax came out at 55.7 ± 7.8%.
Turning to `Cc1c(Cl)cccc1NC(=O)Nc1cccc(O)c1` [Compound 16], at hTRPV1 [1], affinity was put at a Ki of 0.56 ± 0.16 µM and the inhibition at 30 µM is 100%. The compound also returned a Ki in assay [2] of 12.2 µM.
As a reminder, the % inhibition is the percentage by which the read-out fell short of the control. For `O=C(Nc1ccc(F)c([N+](=O)[O-])c1)Nc1cccc2c(O)cccc12` [Compound 14], the inhibitory constant (Ki) at hTRPV1 [4] is 0.65 ± 0.26 µM; on hTRPV1 [1], 0.47 ± 0.18 µM; in assay [2], 15.9 µM. In addition, at hTRPV1 [1], the “% inhibition at 30 μM (capsaicin antagonism)” value (shortened to “% inhibition at 30 μM”) is on record as 100 ± 0%.
At hTRPV1 [1], `COc1ccc(Cl)cc1NC(=O)Nc1ccc(CCO)cc1` [Compound 7] yielded an inhibition at 30 µM of 33 ± 7%.
On hTRPV1 [1], `CCOC(=O)c1ccc(NC(=O)Nc2cccc(Cl)c2)cc1` [Compound 4] showed a Ki of 11.7 ± 1.3 µM and an inhibition at 30 µM of 64.5%.
`CCN(CC)c1ccc(CNS(=O)(=O)c2ccc(NC(C)=O)cc2)cc1` [XIE1-203Y, N-(4-(N-(4-(diethylamino)benzyl)sulfamoyl)phenyl)acetamide] came in with an inhibition at 30 µM against hTRPV1 [1] of 12.7 ± 1%.
On hTRPV1 [1], `Cc1ccc(Cl)cc1NC(=O)Nc1cccc2c(O)cccc12` [Compound 13] gave a Ki of 3.7 ± 1 µM and an inhibition at 30 µM of 72%.
In the case of `O=C(Nc1cccc(C(F)(F)F)c1)Nc1ccc([N+](=O)[O-])cc1Cl` [Compound 1], the inhibition constant (Ki) at hTRPV1 [4] stood at 1.11 ± 0.21 µM. At hTRPV1 [1], the “% inhibition at 30 μM” value was determined as 92.2 ± 2.7% and testing at 30 µM gave an inhibition of 98.2 ± 2.7%.
For the compound `Cc1cc(O)c(C(C)C)cc1NC(=O)Nc1ccc(Br)cc1` [Compound 9], on hTRPV1 [1], 30 µM produced 27 ± 14% inhibition.
As to `O=C1C(=O)c2cc(Br)cc([N+](=O)[O-])c2-c2ccc(Br)cc21` [Compound 17], on hTRPV1 [1], affinity was put at a Ki of 2.15 ± 0.72 µM and the “% inhibition at 30 μM” value was determined as 66 ± 11%.
Turning to `CSc1ccc(NC(=O)Nc2ccc(Cl)cc2[N+](=O)[O-])cc1` [Compound 11], on hTRPV1 [1], the affinity, expressed as Ki, was 3.7 ± 1.7 µM and the “% inhibition at 30 μM” value is recorded as 61 ± 18%.
With `NC(=O)c1ccccc1NC(=O)Nc1ccc(F)cc1` [Compound 3], testing at 30 µM on hTRPV1 [1] gave an inhibition of 32 ± 8%.
At hTRPV1 [1], `O=C(Nc1cc(C(F)(F)F)ccc1Cl)c1ccccc1F` [Compound 18] had a Ki of 7 ± 2 µM and an inhibition at 30 µM of 51.8%.
At hTRPV1 [1], `CCOC(=O)c1ccc(NC(=O)Nc2cc(Cl)ccc2C)cc1` [Compound 6] came in with an inhibition at 30 µM of 34 ± 7%.
Consider `Cc1cc([N+](=O)[O-])ccc1NC(=O)Nc1cccc(F)c1` [Compound 2], for which the inhibitory constant (Ki) on hTRPV1 [4] was 5.2 ± 0.32 µM; at hTRPV1 [1], 4.5 µM and 4.52 µM; at hTRPV1 [1] (listed as compound 2), 4.5 ± 0.88 µM. Also, testing at 30 µM against hTRPV1 [1] gave an inhibition of 79.9 ± 4.9%.
